{"source": "patent US20150037255A1", "about": "“PHTHALOCYANINE DYE-CONTAINING CONTRAST AGENT FOR PHOTOACOUSTIC IMAGING” (CANON KABUSHIKI KAISHA, priority 2013, published 2015)", "experiment": "Hydrophobicity evaluation of hydrophobic metal phthalocyanine dye by TLC (Rf value)", "format": "physicochemical", "conditions": "TLC glass plate RP-18, methanol containing 1% by weight lithium chloride; value of the dye used", "experimental": "To compare the hydrophobicities of hydrophobic metal phthalocyanine dyes, evaluation was carried out using a thin-layer liquid chromatography (hereinafter sometimes abbreviated as TLC) method.\nA TLC glass plate, RP-18 (from Merck & Co., Inc.), was used as a development plate, and a methanol solution containing 1% by weight of lithium chloride was used as a development solvent.\nAccording to an established method, a dye solution was spotted on the starting line and the relative migration distance (hereinafter sometimes abbreviated as Rf value) was calculated based on the following equation. Rf value=the distance from the starting line to the center of the spot of the component/the distance from the starting line to the top of the solvent"}
{"substance": "Cobalt 2,9,16,23-tetra-tert-butyl-29H,31H-phthalocyanine", "values": [{"measurement": "Rf Value", "result": 0.08}]}
{"substance": "Copper (II) 2,9,16,23-tetra-tert-butyl-29H,31H-phthalocyanine", "values": [{"measurement": "Rf Value", "result": 0.06}]}
{"substance": "Zinc 2,9,16,23-tetra-tert-butyl-29H,31H-phthalocyanine", "values": [{"measurement": "Rf Value", "result": 0.10}]}
{"substance": "tert-butyl silicon-[bis trimethylsiloxy]-phthalocyanine", "values": [{"measurement": "Rf Value", "result": 0.12}]}
